We go through two molecules from patent US20240165282A1, “CONFORMATIONAL CONSTRAINED SOMATOSTATIN RECEPTOR 3 PEPTIDE LIGANDS AND THEIR CONJUGATES AND USES THEREOF” (STARGET PHARMA LTD., priority 2021, published 2024).

*1 amine or outer side, *2 acyl side, *3 side chain or, on linkers, in order; H or OH if unused. Where a SMILES comes first, the peptide text is derived from it. Bridges are numbered along the chain shown (N, C = ends). Where no end group is shown, it is not given here. [ ]: non-standard residue; d: D form. N(2-mercaptoethyl)Gly = O=C(CN(CCS[*:3])[*:1])[*:2]

Details of series [1]: species or system mice. To be noted: mouse, in vivo, iv. The procedure: As described in Example 1 above, the successful substitution of the arginine with lysine which preserved the high affinity selectivity of SEQ ID NO: 2 to SSTR-3 (as depicted in table 3) can improve this analog as a better candidate for radioligand therapy and diagnostic. SEQ ID NO: 4 and SEQ ID NO: 10 are the gallium labeled analogs of SEQ ID NO: 1 and SEQ ID NO: 2 respectively. Following their radiolabeling the radioligand were injected to anesthetized naïve mice by intravenous administration. The mice were subjected to PET-CT imaging aimed to assess the disposition profiles of the radioligands.

Another series deals with GH release. As to the kind of experiment: L-arginine induced GH release in rats. To be noted: S.C. 100-1000 microgram/kg, L-arginine stimulation. Format: in vivo, Wistar rats. The protocol: (§1) In vivo determination of the pharmacodynamic properties of SSTR3 analogs was carried out in rats, according to known procedures (Afargan M. et al., 2001, Pless J. et al 1986).
Inhibition of GH release as a result of peptide administration was measured in Wistar male rats.
(§2) Adult male Wistar rats weighing 200-220 g, were maintained on a constant light-dark cycle (light from 8:00 to 20:00 h), temperature (21±3° C.), and relative humidity (55±10%). Laboratory chow and tap water were available ad libitum. All animals in the study were fasted overnight, animals were placed in cages with metal mesh to prevent coprophagia with free access to water. On the day of the experiment, rats were anesthetized with Nembutal (IP, 60 mg/kg). Ten minutes after anesthesia, drugs were administrated S.C. at 100-1000 microgram/kg dose. At 10 minutes after drugs administration the stimulation of GH and glucagon release were carried out by i.v. bolus administration of 0.5 g/kg L-arginine, stimulation of insulin release was carried out in separate animal groups that received i.v. bolus of 0.5 g/kg of glucose. Terminal blood samples in EDTA were collected at 5 minutes after stimulation. Blood samples were and centrifuged immediately. Plasma was separated and kept frozen at −20° C. until assayed.
Rat growth hormone (rGH), glucagon and insulin levels were determined by commercial ELISA kits using the Millipore ELISA kits (Billerica, MA, USA). The ELISA kit for rat plasma GH, Millipore, Cat. No. EZRMGH-45K was performed according to the validated detection method of colorimetric sandwich ELISA protocol (Supriya S. et al., 2013). The ELISA kit for rat plasma insulin, Millipore Cat. No. MMEZRMI13K (Merck) was performed according to the validated detection method of fluorescent colorimetric protocol (Xu, P.Z. et al., 2012). […]
(§3) Data analysis of rat plasma GH, glucagon and insulin levels was evaluated by the averaged plasma hormones levels of each group. […] Results are expressed as the mean±SEM.

In the next series the target is SSTR5 (Homo sapiens, UniProt P35346). As to the kind of experiment: Radioligand binding, displacement of 125I-Tyr11-SRIF-14. On the set-up: host or cells: Chem-1 (Rat ChemiSCREEN) cells, membrane preparation. The settings on record: hSSTR-5; read-out: IC50. Put shortly:
(§4)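 Assays ran at 25 °C in 25 mM HEPES pH 7.4 with 5 mM MgCl2, 1 mM CaCl2, 0.1% BSA and 1% DMSO. Filter-bound radioactivity gave IC50 by nonlinear least-squares regression.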

The target in a further series is T1, hSSTR-4 (Homo sapiens, UniProt P31391).
T1 construct: host or cells: Chem-1 (Rat ChemiSCREEN) cells, membrane preparation
Described as above. The settings on record: hSSTR-4; read-out: IC50. In a few lines:
as §4

Series [2] in a line: Physicochemical studies of surface activity. To be noted: nonspecific binding.
For the next series, the system named is insulin release. Briefly: Glucose induced insulin release in rats. It is filed as in vivo, Wistar rats. The settings on record: S.C. 100-1000 microgram/kg, glucose stimulation. The procedure:
as §1, §2
Rat growth hormone (rGH), glucagon and insulin levels were determined by commercial ELISA kits using the Millipore ELISA kits (Billerica, MA, USA). The ELISA kit for rat plasma GH, Millipore, Cat. No. EZRMGH-45K was performed according to the validated detection method of colorimetric sandwich ELISA protocol (Supriya S. et al., 2013). The ELISA kit for rat plasma insulin, Millipore Cat. No. MMEZRMI13K (Merck) was performed according to the validated detection method of fluorescent colorimetric protocol (Xu, P.Z. et al., 2012). The ELISA kit for rat plasma glucagon, Millipore, Cat. No. EZGLU-35 was performed according to the validated detection method of chemiluminescent sandwich ELISA protocol (Soyeon Y. et al., 2021).
as §3

The next series deals with SSTR3 (Homo sapiens, UniProt P32745). As to the kind of experiment: Radioligand binding, displacement of 125I-Tyr11-SRIF-14. On the set-up: host or cells: CHO (Chinese Hamster Ovary) cells, membrane preparation. In a few lines: as §4
The next series has as its target SSTR2 (Homo sapiens, UniProt P30874). The description is as above. Further details: host or cells: CHO (Chinese Hamster Ovary) cells, membrane preparation. To be noted: hSSTR-2; read-out: IC50. In a few lines: as §4
The target in another series is SSTR1 (Homo sapiens, UniProt P30872). Described as above. On the set-up: host or cells: CHO (Chinese Hamster Ovary) cells, membrane preparation. The settings on record: hSSTR-1; read-out: IC50. Put shortly:
as §4

Sequence of SSTR3 (P32745 whole entry): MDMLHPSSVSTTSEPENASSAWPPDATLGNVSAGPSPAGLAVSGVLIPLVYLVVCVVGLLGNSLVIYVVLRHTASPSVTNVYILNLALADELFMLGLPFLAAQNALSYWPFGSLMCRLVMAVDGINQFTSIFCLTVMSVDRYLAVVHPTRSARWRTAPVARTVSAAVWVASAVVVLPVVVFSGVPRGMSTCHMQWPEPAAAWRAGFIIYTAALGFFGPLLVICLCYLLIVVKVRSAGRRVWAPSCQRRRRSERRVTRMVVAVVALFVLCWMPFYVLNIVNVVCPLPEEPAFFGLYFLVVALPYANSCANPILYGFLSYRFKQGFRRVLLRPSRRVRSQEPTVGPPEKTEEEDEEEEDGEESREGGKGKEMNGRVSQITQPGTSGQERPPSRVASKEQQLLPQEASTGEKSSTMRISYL
Sequence of SSTR1 (P30872 whole entry): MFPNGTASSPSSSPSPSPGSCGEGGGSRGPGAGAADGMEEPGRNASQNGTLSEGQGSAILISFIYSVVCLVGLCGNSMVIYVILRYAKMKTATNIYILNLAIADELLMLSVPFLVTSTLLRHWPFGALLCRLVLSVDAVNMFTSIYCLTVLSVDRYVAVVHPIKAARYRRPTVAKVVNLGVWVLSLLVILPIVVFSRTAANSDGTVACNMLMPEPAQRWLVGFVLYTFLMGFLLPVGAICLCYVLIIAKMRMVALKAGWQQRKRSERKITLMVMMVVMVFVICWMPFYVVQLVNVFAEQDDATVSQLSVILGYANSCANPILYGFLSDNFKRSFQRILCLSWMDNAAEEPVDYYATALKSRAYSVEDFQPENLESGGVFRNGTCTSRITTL
T1 sequence (P31391 whole entry): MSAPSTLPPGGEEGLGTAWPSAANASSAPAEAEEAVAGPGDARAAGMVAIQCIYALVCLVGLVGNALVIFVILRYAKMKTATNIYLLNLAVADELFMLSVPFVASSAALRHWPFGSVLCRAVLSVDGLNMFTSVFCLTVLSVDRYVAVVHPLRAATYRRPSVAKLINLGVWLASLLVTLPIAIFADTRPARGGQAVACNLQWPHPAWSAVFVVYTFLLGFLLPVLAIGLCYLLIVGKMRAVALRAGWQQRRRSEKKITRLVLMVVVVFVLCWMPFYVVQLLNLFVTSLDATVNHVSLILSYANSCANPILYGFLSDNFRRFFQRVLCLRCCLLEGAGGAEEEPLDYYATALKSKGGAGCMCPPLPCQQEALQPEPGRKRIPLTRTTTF
Sequence of SSTR5 (P35346 whole entry): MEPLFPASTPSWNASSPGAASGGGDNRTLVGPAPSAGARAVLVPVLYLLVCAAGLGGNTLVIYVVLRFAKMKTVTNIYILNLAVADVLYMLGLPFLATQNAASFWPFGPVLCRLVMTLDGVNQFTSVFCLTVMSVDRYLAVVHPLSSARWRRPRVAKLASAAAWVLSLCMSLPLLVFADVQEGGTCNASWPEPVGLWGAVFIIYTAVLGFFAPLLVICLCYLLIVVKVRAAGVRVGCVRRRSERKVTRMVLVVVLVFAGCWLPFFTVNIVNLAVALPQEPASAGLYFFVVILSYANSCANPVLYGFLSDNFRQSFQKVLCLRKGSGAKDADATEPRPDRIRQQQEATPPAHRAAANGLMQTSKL
Sequence of SSTR2 (P30874 whole entry): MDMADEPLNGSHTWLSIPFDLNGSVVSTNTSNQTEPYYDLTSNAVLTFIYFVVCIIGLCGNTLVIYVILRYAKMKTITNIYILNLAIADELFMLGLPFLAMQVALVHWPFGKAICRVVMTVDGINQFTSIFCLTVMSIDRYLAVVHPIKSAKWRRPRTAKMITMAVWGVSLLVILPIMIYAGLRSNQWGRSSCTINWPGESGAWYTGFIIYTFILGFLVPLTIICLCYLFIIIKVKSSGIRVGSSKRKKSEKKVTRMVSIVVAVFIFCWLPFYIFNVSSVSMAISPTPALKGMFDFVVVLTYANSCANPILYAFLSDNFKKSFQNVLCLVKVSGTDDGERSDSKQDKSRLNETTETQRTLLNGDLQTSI

Consider “radiolabeled SEQ ID NO: 2 ([dF]KCF[dW]KTF[N(2-mercaptoethyl)Gly]-NH2; disulfide 3-9; not fully specified (N-terminus); also: radiolabeled)”, for which the “clearance from the kidneys” value in series [1] is on record as “significantly higher clearance of the peptide from the kidneys in comparison to radiolabeled SEQ ID NO: 1”.

For orientation: IC50 means the concentration needed to halve the response being measured. As a reminder, the Ki is the dissociation constant of the complex between target and ligand, obtained from inhibition or displacement. On to `C[C@@H](O)[C@@H]1NC(=O)[C@H](CCCCN)NC(=O)[C@@H](Cc2c[nH]c3ccccc23)NC(=O)[C@H](Cc2ccccc2)NC(=O)[C@@H](NC(=O)[C@H](CCCCN)NC(=O)[C@H](N)Cc2ccccc2)CSSCCN(CC(N)=O)C(=O)[C@H](Cc2ccccc2)NC1=O` [SEQ ID NO: 2, H-D-Phe^1-Lys^2-Cys^3-Phe^4-D-Trp^5-Lys^6-Thr^7-Phe^8-NTEG^9-NH2 (cyclo 3-9)] (H-[dF]KCF[dW]KTF[N(2-mercaptoethyl)Gly]-NH2; disulfide 3-9), for which the “inhibition of GH release” value in the series on GH release is on record as “potent inhibitors of pituitary GH release”. Moreover, the IC50 at SSTR5 was > 500 nM; on hSSTR-4, > 1000 nM; at SSTR3 (hSSTR-3, read-out: IC50), 0.73 nM; at SSTR2, > 500 nM; at SSTR1, > 100 nM. In addition, the surface activity profile result in series [2] is “favorable surface activity profile by means of reduced nonspecific binding”. For the same molecule, the “effect on insulin release” value with insulin release is recorded as “did not affect insulin release”. For the same molecule, the “affinity and selectivity to SSTR3 (in words)” value at SSTR3 (binding data) is “retained the binding affinity and selectivity to SSTR3”. Moreover, the “Hill coefficient (nH)” value on SSTR3 (hSSTR-3) was found to be 1.09. The Ki at SSTR3 (hSSTR-3, Cheng and Prusoff, read-out: Ki) is 0.25 nM.
